Test results from US20260256799A1, “INHIBITORS FOR TREATING SOLID TUMOURS” (UNIVERSITY OF SOUTHAMPTON, priority 2023, published 2026).

What was measured:
[1] = monotherapy, dose escalation phase 1; cited from earlier work
H441, 5PT, SCC25 cells = assay: Transwell invasion assay towards fibroblast-conditioned media; format: cell-based, human
Method: CAF, HFFF2 or shCTR/shATM HFFF2 populations were treated with 13.3 μM KU55933+/−TGF-β1 for 7 days (treated day 1, day 4). Cells were washed twice with PBS and serum-free DMEM added for 72 hours. Fibroblast-conditioned medium (CM) was collected, centrifuged, filtered (0.2 μm), normalized according to cell number and used as a chemoattractant in the lower chamber of Transwell invasion assays as previously. Two-way Anova was used for statistical analysis.

HNSCC and NSCLC CAF = assay: Established myoCAF phenotype of CAF cultured ex vivo; format: cell-based, human
Method: (§1) Human NSCLC cell line H441, HNSCC SCC25, murine cancer cell line TC-1 (lung), MC38 (colon) and human fetal foreskin fibroblasts HFFF2 were purchased from European Collection of Cell Cultures (Public Health England) or ATCC; HNSCC 5PT [32] were provided by l. Mackenzie (Queen Mary University of London, UK). HEK-293T cells and IMR90 lung fibroblasts were provided by Jesus Gil (Imperial College, London, UK). SCC25 were grown in Ham's F12:DMEM (1:1 ratio) medium with 10% FBS (Calbiochem) and 292 μg/ml L-Glutamine. 5PT were cultured in keratinocyte growth medium. HEK-293T, H441, MC38, HFFF2, IMR90 and primary fibroblasts were grown in DMEM supplemented with 10% FBS and 292 μg/ml L-Glutamine. Primary fibroblasts were isolated as previously used at early passage (p1-10). C57BL/6 murine normal lung and colon fibroblasts (MLF and MCF respectively) were grown at 3% oxygen. TC-1 were cultured in RPMI supplemented with 10% FBS and 292 μg/ml L-Glutamine. All cell cultures were routinely tested for mycoplasma contamination. All cells were cultured using standard cell culture plates/flasks (Corning). HFFF2 or IMR90 cells were transfected with 25 μM On-Target pool siRNA (Thermo Scientific/Dharmacon) using Oligofectamine reagent (Life Technologies) as described. Stable knockdown was performed using retro/lentiviral mediated transduction of shRNA plasmids, as previously described followed by cell selection using 1 μg/ml puromycin for 5-7 days. NOX4-inducible HEK-293 cells (kindly provided by Vincent Jaquet) were treated with 1 μg/ml doxycycline. Wild type and mutant (C2991L) ATM over-expression was carried out transfecting HFFF2 with Viafect (Promega) according to manufacturer's instructions and selected for 10 days with 4 mg/ml G418. p-Retrosuper-shATM (ATM #1:912) and pCDNA3.1-Flag-mut-ATM (C2991L; pTP1625 clone) were kindly provided by Yosef Shiloh and Tanya Paull respectively. pLKO.1 murine shATM (TRCN0000012643) and pCDNA3.1-Flag-wt-ATM (31985) were purchased from Sigma and Addgene respectively. 2 ng/ml TGF-3 (TGF-β1; R&D Systems; for 3 days) was used to induce myofibroblast differentiation. 10 ng/ml IL-1pR (R&D Systems) for 72 hours was used to induce iCAF differentiation. […] All the inhibitors were resuspended in DMSO. To trigger DDR activation and/or cell stress HFFF2 were either irradiated with 2-100Gy using 350Kv X-Ray Irradiation System (Faxitron), or treated with 100 ng/ml Neocarzinostatin for 2 hours (NCS; Sigma), with 2-10 mM H2O2(Fisher Scientific) or with 5 μg/ml Cisplatin (Sandoz) for 30 minutes.
Cells were lysed in ice-cold RIPA buffer [1% NP40, 150 mM NaCl, 25 mM Tris-HCl pH 7.5, 0.1% SDS, 1% Na-Deoxycolate, 1 mM EGTA, 1 mM EDTA, 1 mM Na-orthovanadate, 10 mM Na-fluoride, 2.5 mM Na-pyrophosphate, 1 mM p glycerophosphate+freshly added 1 mM PMSF, 20 mM N-Ethylmaleimide (NEM), 10 ng/ml Microcystin-LR, 0.12 μM Okadaic acid and phosphatase and protease inhibitor cocktails; all from Sigma]. Protein extracts were then centrifuged and supernatants quantified using Dc-Bio-Rad protein assay kit (Bio-Rad laboratories) as previously. For nuclear-cytoplasmic protein extraction, the inventors used NE-PER Reagents according to manufacturer's instructions (Thermofisher). Equal amounts of protein were electrophoresed either in reducing (+Dithiothreitol, DTT) or in non-reducing conditions in 3-8% or 4-12% SDS-PAGE gels and electro blotted as previously.

HFFF2 fibroblasts = assay: TGF-β1-induced myofibroblast differentiation of fibroblasts (Western blotting, immunofluorescence, Q-RT-PCR, collagen gel contraction); format: cell-based, human
Method: as §1
5×10^3 HFFF2 were plated on permanox chamber slides (Thermo Scientific) and treated as described in the figure legends. Immunostaining was performed as previously. DAPI was used as nuclear counterstain and coverslips were mounted using fluorescent mounting solution (Dako). Images were taken using an Olympus IX81 fluorescence microscope and Xcellence program. DNA Damage foci were quantified from at least 8 non-overlapping FoV with ~300 cells in total per condition. Kruskall-Wallis statistical test was used to indicate the presence of a different distribution per time points in each group of foci. For collagen 1A1 deposition, 5×10^3 HFFF2 or MLF were seeded into chamber slides and treated with TGF-β1±inhibitors for a week (treated day 1 & day 4). Decellularisation was performed using 0.25M NH4OH in 50 mM Tris at 37° C. for 30 minutes and slides fixed with ice-cold 100% methanol at −20° C. followed by a blocking step. The remainderwas performed as previously described. SMA and Collagen 1A1 quantification was performed using Fiji. High resolution imaging of mouse tumours was carried out using an Axioscan.Z1 scanner (Zeiss).

HFFF2 = assay: IL-1-induced iCAF gene expression (Q-RT-PCR); format: cell-based, human; details: KU55933 + 10 ng/ml IL-1p 72 hours
Method: Human NSCLC cell line H441, HNSCC SCC25, murine cancer cell line TC-1 (lung), MC38 (colon) and human fetal foreskin fibroblasts HFFF2 were purchased from European Collection of Cell Cultures (Public Health England) or ATCC; HNSCC 5PT [32] were provided by l. Mackenzie (Queen Mary University of London, UK). HEK-293T cells and IMR90 lung fibroblasts were provided by Jesus Gil (Imperial College, London, UK). SCC25 were grown in Ham's F12:DMEM (1:1 ratio) medium with 10% FBS (Calbiochem) and 292 μg/ml L-Glutamine. 5PT were cultured in keratinocyte growth medium. HEK-293T, H441, MC38, HFFF2, IMR90 and primary fibroblasts were grown in DMEM supplemented with 10% FBS and 292 μg/ml L-Glutamine. Primary fibroblasts were isolated as previously used at early passage (p1-10). C57BL/6 murine normal lung and colon fibroblasts (MLF and MCF respectively) were grown at 3% oxygen. TC-1 were cultured in RPMI supplemented with 10% FBS and 292 μg/ml L-Glutamine. All cell cultures were routinely tested for mycoplasma contamination. All cells were cultured using standard cell culture plates/flasks (Corning). […]
For Quantitative Real-time PCR (Q-RT-PCR), RNA was extracted and retro-transcribed as described previously and Q-RT-PCR was performed as previously. The mRNA expression levels were analyzed using the AACt relative quantitation method. […]

[2] = CCT241533 1.5 μM + TGF-β1 72 hours, HFFF2
[3] = CCT241533 1.5 μM + TGF-β1, HFFF2

SMILES: CC(C)n1c(=O)n(C)c2cnc3cc(F)c(-c4ccc(OCCCN5CCCCC5)nc4)cc3c21 [AZD1390]
- adverse effects [1]: not yet reporting to be associated with adverse effects

SMILES: O=c1cc(-c2cccc3c2Sc2ccccc2S3)oc(N2CCOCC2)c1 [KU55933]
- invasion-promoting effects of myofibroblasts generated through TGF-β1 treatment (H441, 5PT, SCC25 cells; 5PT or SCC25 cells towards conditioned media of HFFF2 treated with TGF-β1 +/− KU55933 7 days): suppressed
- myoCAF-dependent cancer cell invasion (H441, 5PT, SCC25 cells; H441 or 5PT cells towards conditioned media of NSCLC / HNSCC CAF treated with KU55933 13.3 μM 7 days): inhibiting
- CAF phenotype (HNSCC and NSCLC CAF; KU55933 for 7 days): reverted CAF to a more quiescent phenotype
- expression of myofibroblast markers (SMA, collagen I, fibronectin) (HNSCC and NSCLC CAF; KU55933 for 7 days): downregulating
- contractility (HNSCC and NSCLC CAF; collagen gel contraction, ATM inhibition by KU55933 or shRNA-knockdown): suppressing
- expression of SMA (HFFF2 fibroblasts; KU55933 13.3 μM + TGF-β1 72 hours, HFFF2 and primary colon, skin, oral fibroblasts): inhibiting
- SMA-positive stress fiber formation (HFFF2 fibroblasts; KU55933 13.3 μM + TGF-β1, 3 days, HFFF2): inhibiting
- collagen1 deposition (HFFF2 fibroblasts; KU55933 13.3 μM + TGF-β1, 7 days, HFFF2, MLF one week): inhibiting
- contraction of collagen gels (HFFF2 fibroblasts; KU55933 13.3 μM + TGF-β1, HFFF2 or normal primary oral fibroblasts): inhibiting
- myofibroblast differentiation (HFFF2 fibroblasts; KU55933 13.3 μM co-treated with TGF-β1): suppressed differentiation
- TGF-β1 induction of myoCAF genes (COL11A1, ASPN, ELN) (HFFF2 fibroblasts; KU55933 + TGF-β1 72 hours, HFFF2, Q-RT-PCR): suppressed
- IL-1p induction of most iCAF genes (CCL2, LIF, IL6, CXCL1) (HFFF2): significantly upregulated

SMILES: COc1cc2nc(-c3cc(F)ccc3O)nc(N[C@@H]3CNC[C@H]3C(C)(C)O)c2cc1OC [CCT241533]
- TGF-β1-dependent FnEDA expression (HFFF2 fibroblasts; [2]): suppresses
- TGF-β1-dependent SMA expression (HFFF2 fibroblasts; [2]): suppresses
- SMA-positive stress fiber formation (HFFF2 fibroblasts; [3]): suppresses
- collagen deposition (HFFF2 fibroblasts; [3]): suppresses
